Assay results published in the supplement of paper PMC10307832.

Legend:
Assay in all cases: relative viability (nuclei count vs DMSO), 5 days (fraction); higher = more cells survive
XMD13-2 + Tozasertib = compound: C1CC1C(=O)NC2=NNC3=C2C=CC(=C3)C4=CC(=CC=C4)C(=O)NC5CC5 [XMD13-2] + Cc1cc(Nc2cc(N3CCN(C)CC3)nc(Sc3ccc(NC(=O)C4CC4)cc3)n2)n[nH]1 [Tozasertib] (partner 0.1 µM)
How it was run: (§1)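 Nuclei were stained with Hoechst during a one-step fixation (final 0.05% Triton X-100, 1% formaldehyde, 1 ug/ml Hoechst) carried out 5 days after dosing, then counted on 4× images. The cells, lung cancer lines in 1536-well plates, had been dosed by pin tool the day after seeding with one drug alone or a fixed anchor-drug dose plus five library-drug doses (not always all listed) in √10 steps. Relative viability is the nuclei count in treated wells divided by that in vehicle wells, and each value is the median of duplicate plates.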

XMD13-2 + Dasatinib = compound: C1CC1C(=O)NC2=NNC3=C2C=CC(=C3)C4=CC(=CC=C4)C(=O)NC5CC5 [XMD13-2] + Cc1nc(Nc2ncc(C(=O)Nc3c(C)cccc3Cl)s2)cc(N2CCN(CCO)CC2)n1 [Dasatinib] (partner 0.075 µM)
How it was run: as §1

ALW-II-49-7 + Trametinib = compound: Cc1ccc(C(=O)Nc2cccc(C(F)(F)F)c2)cc1Nc1cncc(C(N)=O)c1 [ALW-II-49-7] + CC(=O)Nc1cccc(-n2c(=O)n(C3CC3)c(=O)c3c(Nc4ccc(I)cc4F)n(C)c(=O)c(C)c32)c1 [Trametinib] (partner 0.02 µM)
How it was run: as §1

XMD13-2 + Trametinib = compound: C1CC1C(=O)NC2=NNC3=C2C=CC(=C3)C4=CC(=CC=C4)C(=O)NC5CC5 [XMD13-2] + CC(=O)Nc1cccc(-n2c(=O)n(C3CC3)c(=O)c3c(Nc4ccc(I)cc4F)n(C)c(=O)c(C)c32)c1 [Trametinib] (partner 0.02 µM)
How it was run: as §1

Cell Line	relative viability (XMD13-2 + Tozasertib; first compound 0.05 µM)	relative viability (XMD13-2 + Tozasertib; first compound 0.1581 µM)	relative viability (XMD13-2 + Tozasertib; first compound 0.5 µM)	relative viability (XMD13-2 + Tozasertib; first compound 1.581 µM)	relative viability (XMD13-2 + Tozasertib; first compound 5 µM)	relative viability (XMD13-2 + Dasatinib; first compound 0.05 µM)	relative viability (XMD13-2 + Dasatinib; first compound 0.1581 µM)	relative viability (XMD13-2 + Dasatinib; first compound 0.5 µM)	relative viability (XMD13-2 + Dasatinib; first compound 1.581 µM)	relative viability (XMD13-2 + Dasatinib; first compound 5 µM)	relative viability (ALW-II-49-7 + Trametinib; first compound 0.08 µM)	relative viability (ALW-II-49-7 + Trametinib; first compound 0.253 µM)	relative viability (ALW-II-49-7 + Trametinib; first compound 0.8 µM)	relative viability (ALW-II-49-7 + Trametinib; first compound 2.53 µM)	relative viability (ALW-II-49-7 + Trametinib; first compound 8 µM)	relative viability (XMD13-2 + Trametinib; first compound 0.05 µM)	relative viability (XMD13-2 + Trametinib; first compound 0.1581 µM)	relative viability (XMD13-2 + Trametinib; first compound 0.5 µM)	relative viability (XMD13-2 + Trametinib; first compound 1.581 µM)	relative viability (XMD13-2 + Trametinib; first compound 5 µM)
201T	1.02	0.921	0.867	0.872	0.828	0.686	0.533	0.578	0.555	0.563	0.718	0.791	0.691	0.715	0.777	0.712	0.748	0.736	0.703	0.783
A-427	0.213	0.199	0.2	0.159	0.195	0.767	0.792	0.705	0.683	0.536	0.733	0.777	0.761	0.691	0.585	0.795	0.649	0.755		0.581
ABC-1	0.187	0.2	0.163	0.213	0.205	0.53	0.542	0.599	0.51	0.426										
BEN	0.512	0.436	0.491	0.488	0.42	0.321	0.327	0.343	0.246	0.331	1.08	1.03	1.05	0.578	1.02	1.11	1	1.21	0.991	1.07
CAL-12T	0.344	0.41	0.307	0.31	0.368	0.497	0.402	0.405	0.396	0.409	0.294	0.336	0.346	0.307	0.288	0.465	0.399	0.332	0.317	0.307
COR-L23	0.232	0.18	0.197	0.18	0.185	0.585	0.544	0.477	0.42	0.497	0.576	0.514	0.648	0.566	0.43	0.611	0.591	0.684	0.552	0.626
COR-L 105	0.374	0.385	0.339	0.376	0.425	0.463	0.325	0.343	0.365	0.323	0.443	0.401	0.43	0.453	0.396	0.423	0.466	0.432	0.476	0.393
ChaGo-K-1	0.234	0.214	0.254	0.222	0.258	0.651	0.533	0.604	0.602	0.517	0.889	0.939	0.919	0.847	0.85	0.937	0.89	0.959	0.847	0.835
EKVX	0.468	0.414	0.405	0.394	0.45	0.591	0.445	0.548	0.594	0.497	0.266	0.347	0.482	0.317	0.298	0.383	0.341	0.248		0.299
EMC-BAC-2	0.284	0.28	0.19	0.273	0.267	0.32	0.323	0.202	0.302	0.25	0.966	0.92	0.998	0.857	0.755	0.986	0.893	0.824		0.805
EPLC-272H	0.228	0.289	0.262	0.269	0.136	0.39	0.31	0.503	0.317	0.269	0.245	0.27	0.281	0.305	0.239	0.289	0.311	0.301	0.257	0.271
H3255	0.567	0.844	0.757	0.487	0.507	0.425	0.402	0.367	0.294	0.373	0.856	0.52	0.681	0.62	0.455	0.749	0.66	0.556		0.475
HARA	0.0933	0.117	0.106	0.0964	0.105	0.353	0.196	0.279	0.295	0.298	1.02	0.513	0.794	0.64	0.675	0.667	0.948	1.16	0.776	0.674
HCC-15	0.522	0.422	0.402	0.425	0.463	0.775	0.66	0.715	0.614	0.423	0.396	0.4	0.399	0.353	0.387	0.353	0.351	0.428	0.363	0.344
HCC-44	1.06	1.09	1.09	0.903	0.842						1.08	0.994	1.03	1.09	1.26	1.2	1.04	1.17	1.05	1.05
HCC-78	0.362	0.436	0.372	0.346	0.282	0.565	0.321	0.36	0.347	0.351	0.867	0.702	0.633	0.572	0.78	0.842	0.71	0.834	0.833	0.792
HCC-366	0.0882	0.0936	0.127	0.115	0.116	0.775	0.48	0.783	0.585	0.662	0.33	0.361	0.404	0.275	0.288	0.413	0.334	0.412	0.286	0.331
HCC-827	0.428	0.409	0.427	0.401	0.386	0.321	0.21	0.317	0.253	0.337	0.534	0.526	0.525	0.475	0.462	0.611	0.502	0.528	0.49	0.473
HOP-62	0.363	0.418	0.399	0.393	0.271	0.699	0.689	0.794	0.605	0.6	0.389	0.364	0.402	0.452	0.465	0.397	0.4	0.443	0.426	0.407
LC-2-ad	0.519	0.528	0.436	0.41	0.45	0.899	0.39	0.711	0.535	0.559	0.94	0.917	0.881	0.858	0.945	0.934	0.938	0.961	0.936	0.93
LCLC-97TM1	0.235	0.198	0.209	0.194	0.104	0.829	0.784	0.839	0.728	0.695	0.184	0.207	0.198	0.161	0.223	0.225	0.198	0.217	0.17	0.179
LCLC-103H	0.542	0.326	0.492	0.545	0.416	0.688	0.46	0.445	0.515	0.527	0.667	0.748	0.735	0.712	0.677	0.66	0.677	0.742	0.738	0.76
LK-2	0.187	0.169	0.173	0.18	0.149	0.343	0.276	0.361	0.304	0.234	0.963	0.583	0.636		0.479	1.1	0.785	0.779	0.583	0.571
LOU-NH91	0.724	0.688	0.734	0.644	0.638	0.591	0.586	0.566	0.479	0.525	0.755	0.787	0.804		0.706	0.802	0.726	0.793	0.729	0.85
LU99A	0.301	0.294	0.287	0.263	0.272	0.572	0.646	0.649	0.503	0.456		0.622	0.62	0.374	0.399	0.581	0.532	0.546	0.54	0.352
NCI-H1563						0.485	0.435	0.43	0.436	0.506										
NCI-H1623	0.5	0.456	0.437	0.42	0.483	0.533	0.52	0.467	0.526	0.585										
NCI-H1648	0.5	0.314	0.608	0.51	0.342						0.522	0.317	0.462	0.347	0.449	0.526		0.454	0.55	0.374
NCI-H1792						0.966	1.03	0.798	0.971	0.829	0.583	0.436	0.42	0.369	0.471	0.549	0.454	0.475	0.509	0.507
